# Measured values reported in patent US20050255178A1, “Enhancing the effectiveness of an inhaled therapeutic gas” (priority 2004, published 2005).
# What was measured:
# awake lambs = assay: U-46619-induced pulmonary hypertension in awake lambs: hemodynamics, gas exchange, cGMP release; type: in vivo
# Description: In awake lambs instrumented with vascular catheters and a tracheostomy tube, the thromboxane analog U-46619 was infused intravenously to increase mean pulmonary arterial pressure (PAP) to 35 mm Hg. After a stabilization period, seven animals received an intravenous infusion of BAY 41-2272 (Alexis Biochemicals, Lausen, Switzerland) at 0.03, 0.1, and 0.3 mg·kg^−1·h^−1 administered for 30 minutes each. In another eight animals, inhaled NO (2, 10, and 20 ppm) was administered in random order for 10 minutes each followed by 15 minute NO-free periods. An intravenous infusion of BAY 41-2272 (0.1 mg·kg^−1·h^−1) was then started. After increasing the infusion of U-46619 to maintain PAP at 35 mmHg, NO was inhaled as before BAY 41-2272. In an additional eight lambs, which received an intravenous infusion of the NO synthase inhibitor, L-NAME (25 mg/kg+5 mg·kg^−1·h^−1), together with U-46619, NO was inhaled before and during the infusion of BAY 41-2272.
# Data were analyzed using repeated measures ANOVA followed by Dunnett adjustment. A p<0.05 was considered statistically significant.
# [1] = test system: U-46619-induced pulmonary vasoconstriction; assay: CO inhaled alone or in combination with BAY 41-2272 during U-46619-induced pulmonary vasoconstriction; type: in vivo
# Description: Systemic hemodynamics, lung gas exchange, and transpulmonary cGMP release were also unchanged by CO inhalation. Arterial concentrations of carboxyhemoglobin gradually rose from 1.0±0.2% to 4.7±0.4% (P<0.01) and from 1.4±0.1% to 5.2±0.2% (P<0.01), respectively, after breathing 500 ppm CO alone or in combination with BAY 41-2272.
# [2] = test system: mouse model of pulmonary hypertension; assay: Mouse model of pulmonary hypertension (U46619): pulmonary and systemic arterial pressures; type: in vivo, mice
# Description: A mouse model of pulmonary hypertension was used to examine the combined effects of YC-1 and inhaled NO. Three mice (average weight 25 g) were anesthetized, their chest opened, catheters were placed in the carotid and pulmonary arteries, and pulmonary and systemic arterial pressures were recorded (FIG. 4). U46619, a thromboxane analogue was administered intravenously to induce pulmonary vasoconstriction. NO (4 parts per million) was added to the inspired gas, and pulmonary vasodilation was measured. Thereafter, NO inhalation was discontinued, and the duration of the pulmonary vasodilator effect was measured.
# YC-1 was administered as boluses over one minute (10, 50 and 100 ug), and both pulmonary artery pressure and systemic blood pressure were measured. Thereafter, YC-1 was administered as an infusion (5 ug/min), and the rate of U46619 infusion was increased (2- to 3-fold) to re-establish pulmonary vasoconstriction. The pulmonary vasodilator response to breathing 4 ppm NO was measured, and duration of pulmonary vasodilation after discontinuing NO was assessed.
# [3] = BAY 41-2272 0.1 mg·kg^−1·h^−1, L-NAME 25 mg/kg+5 mg·kg^−1·h^−1 iv, n=8
# [4] = BAY 41-2272 0.1 mg·kg^−1·h^−1 iv with inhaled NO, P<0.05
# [5] = BAY 41-2272 infusion with NO inhaled at 10 and 20 ppm
# [6] = BAY 41-2272 infusion with NO inhaled at 10 and 20 ppm, P<0.05 vs. baseline PH
# [7] = BAY 41-2272 iv infusion 0.03, 0.1, 0.3 mg·kg^−1·h^−1, 30 min each, n=7
# [8] = during BAY 41-2272 infusion, inhalation of 10 and 20 ppm NO, P<0.01 vs. baseline PH
# [9] = inhaled NO alone at 20 ppm, P<0.05
# [10] = YC-1 boluses over one minute (10, 50 and 100 ug)
structure (smiles),measurement,setting,value
"Nc1nc(-c2nn(Cc3ccccc3F)c3ncccc23)ncc1C1CC1 [BAY 41-2272, 3-(4-amino-5-cyclopropylpyrimidine-2-yl)-1-(2-fluorobenzyl)-1H-pyrazolo[3,4-b]pyridine]",pulmonary vasodilation induced by BAY 41-2272 in presence of L-NAME,awake lambs; [3],but not pulmonary vasodilation
same,systemic vasodilation induced by BAY 41-2272 in presence of L-NAME,awake lambs; [3],abolished
same,reduction of PAP induced by inhaled NO,"awake lambs; BAY 41-2272 0.1 mg·kg^−1·h^−1 iv with inhaled NO 2, 10, 20 ppm, P<0.05",markedly enhanced
same,reduction of PVRI induced by inhaled NO,awake lambs; [4],markedly enhanced
same,reduction of PVRI/SVRI induced by inhaled NO,awake lambs; [4],markedly enhanced
same,HR,awake lambs; [5],remained unchanged
same,MAP,awake lambs; [5],remained unchanged
same,central venous pressure (CVP),awake lambs; [5],remained unchanged
same,reduction of right ventricle stroke work index (RVSWI),"awake lambs; BAY 41-2272 infusion with NO inhaled at 10 and 20 ppm vs inhaled NO alone, P<0.05",to a greater extent than did inhaled NO alone
same,cardiac index (CI),awake lambs; [6],increments
same,pulmonary capillary wedge pressure (PCWP),awake lambs; [6],minor reductions
same,stroke volume index (SVI),awake lambs; [6],increments
same,systemic vascular resistance index (SVRI),awake lambs; [6],minor reductions
same,mean PAP (percent change from pre-treatment pulmonary hypertension value),awake lambs; [7],dose-dependent reductions
same,pulmonary vascular resistance index (PVRI) (percent change from pre-treatment pulmonary hypertension value),awake lambs; [7],dose-dependent reductions
same,reductions in mean PAP and PVRI compared with corresponding reductions in MAP and SVRI,"awake lambs; BAY 41-2272 iv infusion 0.03-0.3 mg·kg^−1·h^−1, p<0.05",significantly greater
same,increase of transpulmonary cGMP release,"awake lambs; co-administration of BAY 41-2272 and inhaled NO vs inhaled NO alone, P<0.05",to a greater extent than did inhaled NO alone
same,persistence of pulmonary vasodilation (T1/2) after NO was discontinued,"awake lambs; during BAY 41-2272 infusion vs before, P<0.05",greater than that before the infusion
same,P(A-a)O2,awake lambs; [8],reduced
same,PaO2/FiO2,awake lambs; [8],augmented
same,Qs/Qt,awake lambs; [8],reduced
same,plasma BAY 41-2272 concentrations,"awake lambs; during the period of NO administrations, iv infusion 0.1 mg·kg^−1·h^−1",remained at a stable level
same,plasma levels of BAY 41-2272,[1]; in vivo,remained stable
same,vasodilator effect on U-46619-induced pulmonary vasoconstriction,[1]; inhalation of CO following administration of / in combination with BAY 41-2272,no vasodilator effect
"[C-]#[O+] [CO, carbon monoxide]",lung gas exchange,[1]; CO inhalation,unchanged
same,systemic hemodynamics,[1]; CO inhalation,unchanged
same,transpulmonary cGMP release,[1]; CO inhalation,unchanged
same,vasodilator effect on U-46619-induced pulmonary vasoconstriction,[1]; inhalation of CO alone,no vasodilator effect
"[N]=O [NO, Nitric oxide]",T1/2 of return of PAP to baseline pulmonary hypertension after NO was discontinued,awake lambs; inhaled NO alone,< 1 min
same,arterial methemoglobin concentrations,awake lambs; inhaled NO alone,no significant changes
same,pulmonary vasodilation,"awake lambs; inhaled NO alone 2, 10, 20 ppm, 10 min each","dose-dependent, selective pulmonary vasodilation"
same,transpulmonary cGMP release,"awake lambs; inhaled NO alone 10 and 20 ppm, P<0.01",increased
same,P(A-a)O2,awake lambs; [9],reduced
same,PaO2/FiO2,awake lambs; [9],increased
same,Qs/Qt,awake lambs; [9],reduced
"OCc1ccc(-c2nn(Cc3ccccc3)c3ccccc23)o1 [YC-1, 3-(5′-hydroxymethyl-2′-furyl)-1-benzylindazole]",pulmonary vasodilator response to breathing NO,[2]; 4 ppm NO during YC-1 infusion (5 ug/min) vs NO alone,greater pulmonary vasodilator response than did breathing NO alone
same,systemic vasodilation on addition of NO inhalation to YC-1,"[2]; 4 ppm NO, YC-1 infusion 5 ug/min",did not cause systemic vasodilation
same,pulmonary vasodilation (pulmonary artery pressure),[2]; [10],induced both pulmonary and systemic vasodilation
same,systemic vasodilation (systemic blood pressure),[2]; [10],induced both pulmonary and systemic vasodilation
same,duration of pulmonary vasodilation after discontinuing NO inhalation,"[2]; during YC-1 infusion (5 ug/min) vs before, P<0.01",greater during an infusion of YC-1 than before
